The values that follow come from ChEMBL document CHEMBL5579897, “Design, Synthesis, and Bioevaluation of Novel NLRP3 Inhibitor with IBD Immunotherapy from the Virtual Screen” (J Med Chem, 2024).

One may read the AUC(0-t) as exposure summed from dosing to a finite time, without extrapolation to infinity. Higher therefore signals high exposure. Broadly, the half-life is how long it takes for the measured level to halve. Lower therefore signals fast loss.

Molecules are shown by their SMILES. Calls of active or inactive are those of the source. The rule behind the calls is not given here.

In series [1] the test system is THP-1. The series can be described thus: Cytotoxicity against PMA-differentiated human THP-1 cells assessed as reduction in cell viability at 0.5 to 100 uM measured after 24 hrs by MTT assay. Type of series: toxicity, cell-based. The conditions noted are these: thp-1, 24 h, dose 0.5-100 µM.
Series [2] deals with T1, Interferon-inducible protein AIM2 (Homo sapiens) (UniProt O14862).
T1 sequence (whole entry): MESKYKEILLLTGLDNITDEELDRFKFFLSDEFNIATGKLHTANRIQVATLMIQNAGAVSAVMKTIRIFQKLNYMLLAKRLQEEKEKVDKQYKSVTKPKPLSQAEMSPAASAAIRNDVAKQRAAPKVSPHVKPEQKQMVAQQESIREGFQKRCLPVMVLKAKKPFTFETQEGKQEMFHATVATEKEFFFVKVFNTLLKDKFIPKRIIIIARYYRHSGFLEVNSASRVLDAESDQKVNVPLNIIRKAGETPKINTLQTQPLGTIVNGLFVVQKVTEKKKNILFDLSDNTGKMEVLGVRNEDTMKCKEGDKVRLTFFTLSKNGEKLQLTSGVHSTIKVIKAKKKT
The series can be described thus: Inhibition of poly-(dA: dT)-induced AIM2 inflammasome activation in LPS-primed human THP-1 cells assessed as inhibition of IL-1beta secretion at 5 uM pretreated with LPS for 4 hrs followed by compound addition for 0.5 hrs and further stimulated with poly-(dA: dT) for 6 hrs by Western blot analysis. To be noted: time 6.5 hrs. Type of series: cell-based.

Series [3] is described as follows: AUC (0 to t) in male C57BL/6J mouse at 5 mg/kg, po administered as single dose and measured over 24 hrs by LC-MS/MS analysis. In kind it is ADME, organism-based. To be noted: in vivo.
Series [4] relates to Mus musculus. Put plainly: Antiinflammatory activity in male wild type C57BL/6 mouse model of DSS-induced ulcerative colitis assessed as reduction in IL-1beta level in colon at 5 to 20 mg/kg, po administered for 10 days with subsequent treatment of DSS for 7 days followed by normal drinking water for 3 days by immunoblot analysis. In kind it is functional, organism-based. To be noted: dose 5-20 mg/kg, time 10.0 day. (In general: Immunoblotting shows a protein as a band on a membrane.)

Series [5] concerns Mus musculus. Put plainly: Antiinflammatory activity in male wild type C57BL/6 mouse model of DSS-induced ulcerative colitis assessed as reduction in IL-1beta level in plasma at 5 to 20 mg/kg, po administered for 10 days with subsequent treatment of DSS for 7 days followed by normal drinking water for 3 days by ELISA. To be noted: dose 5-20 mg/kg, time 10.0 day. In kind it is functional, organism-based. For orientation: ELISA stands for enzyme-linked immunosorbent assay.

The test system of series [6] is Mus musculus. The series can be described thus: Antiinflammatory activity in male NLRP3 knockout C57BL/6 mouse model of DSS-induced ulcerative colitis assessed as reduction in colon shortening at 20 mg/kg, po administered for 10 days with subsequent treatment of DSS in drinking water. In kind it is functional, organism-based. The conditions noted are these: time 10.0 day.

Series [7] deals with BMDM. The series can be described thus: Inhibition of LPS/nigericin induced caspase-1 P20 release in M-CSF induced C57BL/6 mouse BMDM cells at 0.5 to 20 uM preincubated with LPS for 4 hrs followed by compound addition for 30 mins and further incubated with nigericin for 30 mins by Western blot analysis. The conditions noted are these: dose 0.5-20 µM, time 60.0 min. Type of series: functional, cell-based.

Series [8] is described as follows: AUC (0 to t) in male C57BL/6J mouse at 5 mg/kg, iv administered as single dose and measured over 24 hrs by LC-MS/MS analysis. Type of series: ADME, organism-based. The conditions noted are these: in vivo.
Series [9] deals with Mus musculus. Put plainly: Antiinflammatory activity in male NLRP3 knockout C57BL/6 mouse model of DSS-induced ulcerative colitis assessed as reduction in body weight loss at 20 mg/kg, po administered for 10 days with subsequent treatment of DSS in drinking water. In kind it is functional, organism-based. To be noted: time 10.0 day.
Series [10] can be described thus: Half life in male C57BL/6J mouse at 5 mg/kg, po administered as single dose and measured over 24 hrs by LC-MS/MS analysis. In kind it is ADME, organism-based. The conditions noted are these: in vivo.
Series [11] is described as follows: Half life in male C57BL/6J mouse at 5 mg/kg, iv administered as single dose and measured over 24 hrs by LC-MS/MS analysis. Type of series: ADME, organism-based. To be noted: in vivo.
Series [12] concerns THP-1. The series can be described thus: Effect on LPS/nigericin induced NLRP3 intracellular expression in PMA-differentiated human THP-1 cells at 0.5 to 20 uM preincubated with LPS for 4 hrs followed by compound addition for 30 mins and further incubated with nigericin for 30 mins by Western blot analysis. Type of series: functional, cell-based. To be noted: dose 0.5-20 µM, time 60.0 min.

In series [13] the test system is THP-1. Put plainly: Inhibition of LPS/nigericin induced caspase-1 P20 release in PMA-differentiated human THP-1 cells at 0.5 to 20 uM preincubated with LPS for 4 hrs followed by compound addition for 30 mins and further incubated with nigericin for 30 mins by Western blot analysis. In kind it is functional, cell-based. To be noted: dose 0.5-20 µM, time 60.0 min.

The test system of series [14] is THP-1. Put plainly: Effect on LPS/nigericin induced intracellular ASC expression in PMA-differentiated human THP-1 cells at 0.5 to 20 uM preincubated with LPS for 4 hrs followed by compound addition for 30 mins and further incubated with nigericin for 30 mins by Western blot analysis. To be noted: dose 0.5-20 µM, time 60.0 min. In kind it is functional, cell-based.

The test system of series [15] is Mus musculus. The series can be described thus: Antiinflammatory activity in male wild type C57BL/6 mouse model of DSS-induced ulcerative colitis assessed as reduction in NLRP3 level in colon at 5 to 20 mg/kg, po administered for 10 days with subsequent treatment of DSS for 7 days followed by normal drinking water for 3 days by immunohistochemistry analysis. In kind it is functional, organism-based. To be noted: dose 5-20 mg/kg, time 10.0 day.

Series [16] relates to Mus musculus. The series can be described thus: Antiinflammatory activity in male wild type C57BL/6 mouse model of DSS-induced ulcerative colitis assessed as reduction in crypt loss at 5 to 20 mg/kg, po administered for 10 days with subsequent treatment of DSS for 7 days followed by normal drinking water for 3 days by H and E staining based analysis. In kind it is functional, organism-based. The conditions noted are these: dose 5-20 mg/kg, time 10.0 day.

Series [17] deals with THP-1. The series can be described thus: Effect on LPS/nigericin induced IL-1beta mRNA expression in PMA-differentiated human THP-1 cells at 1 to 20 uM pretreated with compound followed by LPS stimulation for 4 hrs and further stimulated with nigericin by RT-PCR analysis. In kind it is functional, cell-based. To be noted: dose 1-20 µM.
For series [18], the system named is THP-1. The series can be described thus: Effect on LPS/nigericin induced intracellular NLRP3 protein expression in PMA-differentiated human THP-1 cell lysate at 0.5 to 20 uM pretreated with compound followed by LPS stimulation for 4 hrs and further stimulated with nigericin by Western blot analysis. The conditions noted are these: dose 0.5-20 µM. In kind it is functional, subcellular.

Series [19] can be described thus: Volume of distribution in male C57BL/6J mouse at 5 mg/kg, iv administered as single dose and measured over 24 hrs by LC-MS/MS analysis. The conditions noted are these: in vivo. In kind it is ADME, organism-based.
The subject of series [20] is THP-1. The series can be described thus: Inhibition of LPS/nigericin induced IL-1beta release in PMA-differentiated human THP-1 cells at 0.5 to 20 uM preincubated with LPS for 4 hrs followed by compound addition for 30 mins and further incubated with nigericin for 30 mins by Western blot analysis. In kind it is functional, cell-based. The conditions noted are these: dose 0.5-20 µM, time 60.0 min.

Series [21] relates to BMDM. The series can be described thus: Inhibition of LPS/nigericin induced IL-1beta release in M-CSF induced C57BL/6 mouse BMDM cells at 0.5 to 20 uM preincubated with LPS for 4 hrs followed by compound addition for 30 mins and further incubated with nigericin for 30 mins by Western blot analysis. Type of series: functional, cell-based. The conditions noted are these: dose 0.5-20 µM, time 60.0 min.

Series [22] can be described thus: Volume of distribution at steady state in male C57BL/6J mouse at 5 mg/kg, iv administered as single dose and measured over 24 hrs by LC-MS/MS analysis. In kind it is ADME, organism-based. To be noted: in vivo, read-out: Vdss.
Series [23] relates to THP-1. Put plainly: Inhibition of NF-kappaB pathway in PMA-differentiated human THP-1 cells assessed as inhibition of LPS/nigericin induced TNF-alpha production at 0.5 to 20 uM pretreated with compound followed by LPS stimulation for 4 hrs and further stimulated with nigericin by ELISA. In kind it is cell-based. To be noted: dose 0.5-20 µM.

With `COc1ccccc1CCNC(=O)/C(=C/c1ccc(Br)cc1)CS(=O)(=O)CCC#N`, the Activity result in the series on THP-1 [1] is “Non-Toxic”. In addition, the inhibition entry (in series [2]; in the series with THP-1 [23]) was “inactive” each time. Also, the exposure AUC(0-t) at 24 h in series [3] is 266 ng·h/mL; in [8], 2220 ng·h/mL. Moreover, the outcome in the series on Mus musculus [4], with Mus musculus [5], with Mus musculus [15] and in the series on Mus musculus [16] was Active. The result with Mus musculus [6], in the series on Mus musculus [9], in the series with THP-1 [12], in the series on THP-1 [14], in the series on THP-1 [17] and in the series on THP-1 [18] was inactive. In addition, the inhibition result in the series on BMDM [7], in the series with THP-1 [13], in the series with THP-1 [20] and in the series on BMDM [21] was “Active” throughout. Besides, the half-life is 0.72 h in series [10] and 1.71 h in [11]. In addition, the Vd in series [19] was 5.76 L/kg; in [22] it was 1.4 L/kg.
